Laboratory results reported in patent US20240034987A1, “SUPPLEMENTED SERUM-FREE MEDIA FOR CULTURED MEAT PRODUCTION” (Trustees of Tufts College, priority 2020, published 2024).
“Also recorded” adds a separate entry of the source.

System: bovine satellite cells (BSCs)
Assay: Short-term growth analysis (3 and 4 days, dsDNA quantitation, brightfield imaging)
Format: cell-based
Details: for BSC proliferation compared to B8 media alone: supplement in B8, range of concentrations, growth over four days; for FGF-2 concentration to which medium could be lowered without significantly affecting growth: vs 40 ng/mL control
Experimental: Homemade B8 medium was prepared using store-bought components and a previously described formulation and method of preparation. See, Kuo, H. H. et al. Negligible-Cost and Weekend-Free Chemically Defined Human iPSC Culture. Stem Cell Reports 14, 256-270. Table 1 includes the formulation. Additionally, HiDef-B8 medium aliquots were generously provided by Defined Bioscience (Defined Bioscience #LSS-201, San Diego, CA, USA) and added DMEM/F12 with 1% antibiotic/antimycotic. Short term BSC growth (3 and 4 days) was analyzed for mixtures of serum-containing and serum-free media, as well as for pure B8 media with reduced growth factor concentrations and/or with the addition of various media supplements (Table 2). Briefly, BSCs were thawed (passage number <2) and plated in BSC-GM on 96-well tissue-culture plastic plates for each timepoint at a density of 2,500 cells/cm^2 with 0.25 ug/cm^2 iMatrix recombinant laminin-511. After 24 hours, BSC-GM was removed, cells were washed 1× with DPBS, and new media (e.g., B8+/−supplementation) was added. A list of supplements and concentrations can be found in Table 2. Media was changed on day 3, and on days 3 and 4 cells were imaged, media was aspirated from appropriate plates, and plates were frozen at −80° C. Once all timepoints were frozen, cell number was analyzed using a FluoReporter dsDNA quantitation kit (ThermoFisher #F2962) according to the recommended protocol and with fluorescence readings performed on a Synergy H1 microplate reader (BioTek Instruments, Winooski, VT, USA) using excitation and emission filters centered at 360 and 490 nm, respectively. Cell number at 3 and 4 days was analyzed relative to pure B8 or HiDef media.

Row | Compound | BSC proliferation compared to B8 media alone | further results
1 | COc1cc(/C=C/C(=O)CC(=O)/C=C/c2ccc(O)c(OC)c2)ccc1O [curcumin, reference compound] | significantly improved | 
2 | NCCO [ethanolamine, reference compound] | inconsequential | 
3 | CCCCC/C=C\C/C=C\CCCCCCCC(=O)O [linoleic acid, reference compound] | significantly improved | 
4 | CCCCCCCC/C=C\CCCCCCCC(=O)O [oleic acid, reference compound] | significantly improved | growth vs B8 control on day 4 (tested alone in B8, day 4): no significant difference
5 | FGF-2: fibroblast growth factor, component of B8 and Beefy-9, baseline 40 ng/mL |  | effect of complete removal of FGF-2 on cell growth and morphology (0 ng/mL FGF-2 in the media): significantly affects cell morphology; also recorded: significantly affected; effect of FGF-2 reduction on cell morphology (Beefy-9 with 5 ng/mL FGF-2, three days): did not affect morphology; FGF-2 concentration to which medium could be lowered without significantly affecting growth (in B8, four days): 5 ng/mL; FGF-2 concentration to which medium could be lowered without significantly affecting growth (in Beefy-9, four days): 1.25 ng/mL
6 | IL-6: interleukin-6, media supplement (BioRad PBP021) | significantly improved | 
7 | hepatocyte growth factor: hepatocyte growth factor, media supplement tested in B8 | inconsequential | 
